Laboratory results published in US20140221397A1, “FIBROSIS INHIBITOR” (Nippon Shinyaku Co., Ltd., priority 2008, published 2014).

What was measured:
Human skin fibroblasts = test: Collagen production (PIP) in human skin fibroblasts stimulated by TGF β1 (Test Example 6); assay type: cell-based; conditions: TGF β1 stimulation, 10 μL of 0.1, 1, 10 or 100 μM solution per well, 48 hours, FIG. 9
Description: Human skin fibroblasts (manufactured by Kurabo; hereinafter, the same product will be used) were seeded in 96-well plate at 5×10^3 cells/well and incubated in a Dulbecco's modified Eagle's medium (DMEM medium; manufactured by Nippon Seiyaku; hereinafter, the same product will be used) containing 10% of bovine fetal serum under the condition of 37° C. and 5% CO2 overnight. The human skin fibroblasts were washed once with an DMEM medium containing no bovine fetal serum (hereinafter, referred to as “serum-free DMEM medium”), and 100 μL of serum-free DMEM medium was added thereto followed by incubation for 24 hours. After washing with serum-free DMEM medium once more, serum-free DMEM medium was added in an amount of 80 μL/well. Ten μL of the 0.1, 1, 10 or 100 μM solution of the compound A prepared by the same method as in Test Example 3 was added to each well. […] After incubating for 48 hours, cell proliferation activity (absorbance) was measured by the MTT method, and PIP concentration in the medium was measured in the same way as in Test Example 3. The evaluation of this test was carried out using the value (index for production of collagen) calculated as a relative value where a mean value in the non-stimulated control group was defined as 1 after correcting the measured value of PIP concentration using the cell proliferation activity value (absorbance).

Human Lung fibroblasts [1] = test: Collagen production (PIP) in human lung fibroblasts stimulated by TGF β1 (Test Example 3); assay type: cell-based; conditions: TGF β1 stimulation, 10 μL of 0.1, 1, 10 or 100 μM solution per well, 48 hours, FIG. 3
Description: Human lung fibroblasts were seeded in 96-well plate at 5×10^3 cells/well and incubated in the growth medium in the same way as in Test Example 1 overnight. The fibroblasts were washed once with 100 μL of basal medium and 100 μL of basal medium was added thereto followed by incubating for 24 hours. They were further washed once with 100 μL of basal medium and then 80 μL/well of basal medium was added. A 0.1, 1, 10 or 100 μM solution of the compound A was added in an amount of 10 μL to each well. […] After incubating for 48 hours, the medium was recovered for measuring the concentration of the type I pro-collagen C terminal peptide (PIP) in the medium, and after an addition of 100 μL of the basal medium, the cell proliferation activity was measured using 3-(4,5-dimethyl-2-thiazolyl)-2,5-diphenyl-2H-tetrazolium bromide (MTT) (manufactured by Nacalai Tesque). Measurement of the cell proliferation activity was conducted in such a manner that 10 μL of a 5 mg/mL MTT stock solution was added to each well, and after incubation for 4 hours, 100 μL of a 0.04M isopropanol solution of hydrochloric acid was added to each well, followed by the absorbance measurement at 595 nm (reference wavelength: 655 nm) using a microplate reader. […]

[2] = system: type I collagen α2 chain (COL 1α2) mRNA; test: COL 1α2 mRNA expression in human lung fibroblasts stimulated by TGF β1, real-time quantitative PCR (Test Example 4); assay type: cell-based; conditions: TGF β1 stimulation, 24 hours, corrected for GAPDH, FIG. 5
Description: (§1) Human lung fibroblasts were seeded in 24-well plate at 1×10^5 cells/well and incubated in growth medium in the same way as in Test Example 1 overnight. The fibroblasts were washed once with 500 μL of basal medium, and added with 500 μL of basal medium followed by incubation for 24 hours. They were further washed once with 500 μL of basal medium and then 400 μL/well of basal medium was added. A 1, 10 or […] of the compound A prepared by the same manner as in Test Example 3 was added in an amount of 50 μL to each well. For the non-stimulated control group and the control group, DMSO which was diluted 100-fold with basal medium was added in an amount of 50 μL. […] Using the cDNA prepared as above as a template, expressed amount of mRNA for type I collagen al chain (COL 1α1), type I collagen α2 chain (COL 1α2), α smooth muscle actin (ACTA), TGF β1 and glyceraldehydes 3-phosphate dehydrogenase (GAPDH) were measured by means of a real-time quantitative PCR method. The real-time quantitative PCR was conducted using Platinum SYBR Green qPCR Super-Mix-UDG with ROX (manufactured by Invitrogen) and a primer being specific to each gene in accordance with the manual attached to the Platinum SYBR Green qPCR Super-Mix-UDG with ROX using ABI PRISM 7000 (Applied Biosystems). […]

[3] = system: α smooth muscle actin (ACTA) mRNA; test: ACTA mRNA expression in human lung fibroblasts stimulated by TGF β1, real-time quantitative PCR (Test Example 4); assay type: cell-based; conditions: TGF β1 stimulation, 24 hours, corrected for GAPDH, FIG. 6
Description: as §1

[4] = system: Rat renal interstitial cells (NRF 49F cells); test: Proliferation of rat renal interstitial cells stimulated by PDGF BB, MTT (Test Example 5); assay type: cell-based; conditions: PDGF BB stimulation, 10 μL of a 100 μM solution per well, 48 hours, FIG. 8
Description: Rat renal interstitial cells (NRF 49F cells) were seeded in 96-well plate at 1×10^4 cells/well and incubated in an Minimum Essential Medium (MEM medium; manufactured by Nippon Seiyaku; hereinafter, the same product will be used) containing 10% of bovine fetal serum (manufactured by JRH Bioscience; hereinafter, the same product will be used) under the condition of 37° C. and 5% CO2 overnight. The cells were washed once with an MEM medium containing no bovine fetal serum (hereinafter, referred to as “serum-free MEM medium”), and 100 μL of the serum-free MEM medium was added thereto followed by incubation for 24 hours. After washing with serum-free MEM medium once, serum-free MEM medium was added in an amount of 80 μL/well. A 100 μM solution of the compound A prepared by the same method as in Test Example 1 was added in an amount of 10 μL to each well. For the non-stimulated control group and the control group, DMSO which was diluted 100-fold with serum-free MEM medium was added in an amount of 10 μL. […] After incubating for 48 hours, cell proliferation activity (absorbance) was measured by an MTT method in the same way as in Test Example 3. The evaluation of this test was carried out using the value (cell proliferation level) expressed as a relative value where a mean value of absorption of the non-stimulating control group was defined as 1.

[5] = system: type I collagen al chain (COL 1α1) mRNA; test: COL 1α1 mRNA expression in human lung fibroblasts stimulated by TGF β1, real-time quantitative PCR (Test Example 4); assay type: cell-based; conditions: TGF β1 stimulation, 24 hours, corrected for GAPDH, FIG. 4
Description: as §1

TGF β1 mRNA = TGF β1 mRNA expression in human lung fibroblasts stimulated by TGF β1, real-time quantitative PCR (Test Example 4); assay type: cell-based; conditions: TGF β1 stimulation, 24 hours, corrected for GAPDH, FIG. 7
Description: as §1

Human Lung fibroblasts [6] = test: Proliferation of human lung fibroblasts stimulated by TGF-α (Test Example 2); assay type: cell-based; conditions: TGF-α stimulation, 10 μL of a 1 μM solution per well, 48 hours, FIG. 2
Description: Human lung fibroblasts were incubated in growth medium under the condition of 37° C. and 5% CO2. The human lung fibroblasts were seeded in 96-well plate at 3×10^3 cell/well and incubated overnight in growth medium.
The fibroblasts were washed once with 100 μL of phosphate-buffered saline. Then basal medium was added thereto and incubation was conducted for 24 hours. They were further washed with 100 μL of phosphate-buffered saline once and then basal medium was added in an amount of 80 μL/well. Ten μL of a 1 μM solution of the compound A was added to each well and incubated for 2 hours. The solution used therefor was prepared in such a manner that the compound A was previously dissolved in DMSO and the resulting 1 mM solution was diluted 100-fold with basal medium. For the non-stimulated control group and the control group, DMSO which was diluted 100-fold with the basal medium was used.
Then a 100 ng/mL solution of transforming growth factor-α (TGF-α) (manufactured by Chemicon) was added in an amount of 10 μL to each well and incubated for 48 hours. For a non-stimulated control group, the basal medium was used.
After incubating for 48 hours, absorbance at 490 nm was measured, in the same way as in Test Example 1, using a reagent for the analysis of cell proliferation activity. For the measurement of the absorbance, a microplate reader was used.

Human Lung fibroblasts [7] = test: Proliferation of human lung fibroblasts stimulated by EGF (Test Example 1); assay type: cell-based; conditions: EGF stimulation, 10 μL of a 100 μM solution per well, 48 hours, FIG. 1
Description: Human Lung fibroblasts (manufactured by Lonza Walkersville; hereinafter, the same product will be used) were cultured in growth medium, which consisted of basal medium for human lung fibroblasts (manufactured by Lonza Walkersville; hereinafter, the same product will be used and referred to as “basal medium”) with FGM-2 additional factor set (manufactured by Lonza Walkersville; hereinafter, the same product will be used) under the condition of 37° C. and 5% CO2. The human lung fibroblasts were seeded in 96-well plate at 1×10^3 cell/well and incubated overnight in growth medium.
The fibroblasts were washed once with 100 μL of phosphate-buffered saline (manufactured by Nissui Seiyaku; hereinafter, the same product will be used) and 100 μL of basal medium was added thereto followed by incubation for 24 hours. They were further washed with 100 μL of phosphate-buffered saline once and then basal medium was added in an amount of 80 μL/well. Ten μL of a 100 μM solution of the compound A or the compound B was added to each well and incubated for 2 hours. […]
After incubating for 48 hours, absorbance at 490 nm was measured using Cell Titer 96, AQueous Assay (manufactured by Promega) for the analysis of cell proliferation activity. For the measurement of the absorbance, a microplate reader (Benchmark, manufactured by Bio-Rad; hereinafter, the same one will be used) was used.

[8] = system: interstitial pneumonia model mice induced by bleomycin; conditions: Non-Patent Document 1; cited from earlier work

SMILES | production of collagen (index for production of collagen, PIP corrected for cell proliferation activity) as compared with the control group (Human skin fibroblasts) | collagen production (index for collagen production, PIP corrected for cell proliferation activity) as compared with the control group (Human Lung fibroblasts [1]) | COL 1α2 mRNA expression level as compared with the control group [2] | ACTA mRNA expression level as compared with the control group [3] | cell proliferation level as compared with the control group [4] | COL 1α1 mRNA expression level as compared with the control group [5] | TGF β1 mRNA expression level as compared with the control group (TGF β1 mRNA) | cell proliferation activity (absorbance at 490 nm) as compared with the control group (Human Lung fibroblasts [6]) | cell proliferation activity (absorbance at 490 nm) as compared with the control group (Human Lung fibroblasts [7]) | effect for interstitial pneumonia [8]
CC(C)N(CCCCOCC(=O)O)c1cnc(-c2ccccc2)c(-c2ccccc2)n1 [compound A, 2-{4-[N-(5,6-diphenyl-pyrazin-2-yl)-N-isopropylamino]butyloxy}acetic acid] | significantly decreased | significantly decreased | decreased | decreased | significantly decreased | decreased | decreased | significantly decreased | significantly decreased | 
CC(C)N(CCCCOCC(=O)NS(C)(=O)=O)c1cnc(-c2ccccc2)c(-c2ccccc2)n1 [compound B, 2-{4-[N-(5,6-diphenylpyrazin-2-yl)-N-isopropylamino]butyl-oxy}-N-(methylsulfonyl)acetamide] |  |  |  |  |  |  |  | inhibitive effects | significantly decreased | 
O=C(O)COc1cccc2c1CCC=C2CCO/N=C(\c1ccccc1)c1cccnc1 [ONO-1301] |  |  |  |  |  |  |  |  |  | inhibitive effect
